The numbers were not newly measured in US20120220783A1, “SALTS OF SUNITINIB” (RANBAXY LABORATORIES LIMITED, priority 2009, published 2012), which cites them from elsewhere.

The conditions of the data set: crystalline form, statement of WO 2009/104021.

For the molecule `CCN(CC)CCNC(=O)c1c(C)[nH]c(/C=C2\C(=O)Nc3ccc(F)cc32)c1C.O=C(O)C[C@H](O)C(=O)O` [Form II of sunitinib L-malate, butanedioic acid, hydroxy-, (2S)-, compound with N-[2-(diethylamino)ethyl]-5-[(Z)-(5-fluoro-1,2-dihydro-2-oxo-3H-indol-3-ylidine)methyl]-2,4-dimethyl-1H-pyrrole-3-carboxamide (1:1)], the hygroscopicity result is given as “hygroscopic”. In addition, for the setting “appears to readily convert to Form I”, the “thermodynamic stability / form conversion” value is recorded as “thermodynamically unstable”.
